One assay has as its system ASPC1 cells. The assay is described as follows: Inhibition of KRas-mediated phosphorylation of ERK (Cisbio HTRF pERK), ASPC1 cells. It is filed as cell-based. Conditions: Homo sapiens, ASPC1, 3 h, AsPC-1 cells; 3 hr compound incubation; Cisbio pERK HTRF. (TR-FRET usually uses a lanthanide donor and a delayed reading to cut background.)
The next assay relates to H727 cells. The assay is described as follows: Inhibition of KRas-mediated phosphorylation of ERK (Cisbio HTRF pERK), H727 cells. It is filed as cell-based. The settings on record: Homo sapiens, NCI-H727, 3 h, 3 hr compound incubation, Cisbio pERK HTRF.
Another assay deals with KRas G12D (Homo sapiens, UniProt P01116, G12D). In words: biochemical. The settings on record: Binding to KRas (IC50 nM) G12D, TR-FRET displacement, KRas G12D.
Sequence of KRas G12D (P01116 1-169 isoform P01116-2 G12D): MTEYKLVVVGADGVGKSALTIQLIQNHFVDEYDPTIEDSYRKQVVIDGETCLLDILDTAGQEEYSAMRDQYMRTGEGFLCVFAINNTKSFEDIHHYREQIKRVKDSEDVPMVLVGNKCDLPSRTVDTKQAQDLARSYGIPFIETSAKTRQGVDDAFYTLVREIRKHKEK
The next assay addresses KRas G12R (Homo sapiens, UniProt P01116, G12R). The assay is described as follows: biochemical. The settings on record: Binding to KRas (IC50 nM) G12R, TR-FRET displacement, KRas G12R.
The target of the next assay is KRas G12V (Homo sapiens, UniProt P01116, G12V). The assay is described as follows: biochemical. Conditions: Binding to KRas (IC50 nM) G12V, TR-FRET displacement, KRas G12V.
Sequence of KRas G12V (P01116 1-169 isoform P01116-2 G12V): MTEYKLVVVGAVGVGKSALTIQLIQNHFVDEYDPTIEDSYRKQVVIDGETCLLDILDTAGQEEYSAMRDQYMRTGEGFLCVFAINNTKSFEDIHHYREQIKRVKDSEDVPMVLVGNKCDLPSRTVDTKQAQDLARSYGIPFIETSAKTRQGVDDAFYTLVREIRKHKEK
The subject of the next assay is A549 cells. The assay is described as follows: Inhibition of KRas-mediated phosphorylation of ERK (Cisbio HTRF pERK), A549 cells. It counts as cell-based. Conditions: Homo sapiens, single point at 100 nM, 3 hrs compound incubation.
Another assay has as its system H358 cells. In words: Inhibition of KRas-mediated phosphorylation of ERK (Cisbio HTRF pERK), H358 cells. Conditions: Homo sapiens, NCI-H358, single point at 100 nM, 3 hrs compound incubation. It is filed as cell-based.

The IC50 is the concentration that inhibits the measured activity by half. High values mean weaker potency in that assay, low ones greater potency in that assay. The term inhibition denotes the change of the read-out against control, counted positive when it falls.

Sequence of KRas G12R (P01116 1-169 isoform P01116-2 G12R): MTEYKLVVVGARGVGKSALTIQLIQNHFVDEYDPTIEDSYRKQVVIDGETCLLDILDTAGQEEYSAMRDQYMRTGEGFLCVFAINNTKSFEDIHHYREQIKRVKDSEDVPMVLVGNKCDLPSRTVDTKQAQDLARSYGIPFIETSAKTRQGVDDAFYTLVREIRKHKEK

With `CCCCCCCCCCN(C)C(=O)c1cc2n(n1)CCCN(c1nc(OC[C@@]34CCCN3C[C@H](F)C4)nc3c1CCN(c1cc(O)cc4ccc(F)c(CC)c14)C3)C2` [Example 266, N-decyl-5-(7-(8-ethyl-7-fluoro-3-hydroxynaphthalen-1-yl)-2-(((2R,7aS)-2-fluorohexahydro-1H-pyrrolizin-7a-yl)methoxy)-5,6,7,8-tetrahydropyrido[3,4-d]pyrimidin-4-yl)-N-methyl-5,6,7,8-tetrahydro-4H-pyrazolo[1,5-a][1,4]diazepine-2-carboxamide], the concentration for half-maximal inhibition (IC50) amounted to 787 nM with ASPC1 cells; 1760 nM with H727 cells; 133 nM on KRas G12D; 254 nM on KRas G12R; 104 nM at KRas G12V.
The matching figures for `CCCCCCCCCCNC(=O)c1cc2n(n1)CCCN(c1nc(OC[C@@]34CCCN3C[C@H](F)C4)nc3c1CCN(c1cc(O)cc4ccc(F)c(CC)c14)C3)C2` [Example 267, N-decyl-5-(7-(8-ethyl-7-fluoro-3-hydroxynaphthalen-1-yl)-2-(((2R,7aS)-2-fluorohexahydro-1H-pyrrolizin-7a-yl)methoxy)-5,6,7,8-tetrahydropyrido[3,4-d]pyrimidin-4-yl)-5,6,7,8-tetrahydro-4H-pyrazolo[1,5-a][1,4]diazepine-2-carboxamide]: 3620 nM, 3950 nM, 148 nM, 256 nM and 123 nM.
For `CCc1c(F)ccc2cc(O)cc(N3CCc4c(nc(OC[C@@]56CCCN5C[C@H](F)C6)nc4N4CCOCC(P(C)(C)=O)C4)C3)c12` (stereo partly drawn) [Example 281, (4-(7-(8-ethyl-7-fluoro-3-hydroxynaphthalen-1-yl)-2-(((2R,7aS)-2-fluorotetrahydro-1H-pyrrolizin-7a(5H)-yl)methoxy)-5,6,7,8-tetrahydropyrido[3,4-d]pyrimidin-4-yl)-1,4-oxazepan-6-yl)dimethylphosphine oxide], the IC50 with ASPC1 cells is > 10000 nM; in the assay with H727 cells, 4440 nM; on KRas G12D, 31 nM; at KRas G12R it was 11 nM; on KRas G12V, 6 nM.
On to `CCc1c(F)ccc2cc(O)cc(N3CCc4c(nc(OC[C@@]56CCCN5C[C@H](F)C6)nc4N4CCCn5nc(N(C(C)C)S(C)(=O)=O)cc5C4)C3)c12` [Example 285, N-(5-(7-(8-ethyl-7-fluoro-3-hydroxynaphthalen-1-yl)-2-(((2R,7aS)-2-fluorohexahydro-1H-pyrrolizin-7a-yl)methoxy)-5,6,7,8-tetrahydropyrido[3,4-d]pyrimidin-4-yl)-5,6,7,8-tetrahydro-4H-pyrazolo[1,5-a][1,4]diazepin-2-yl)-N-isopropylmethanesulfonamide], for which the 50% inhibitory concentration (IC50) in the assay on ASPC1 cells was > 10000 nM; with H727 cells it was > 10000 nM; on KRas G12D, 563 nM; at KRas G12R it was 773 nM; on KRas G12V, 886 nM.
As to `CCc1c(F)ccc2cc(O)cc(N3CCc4c(nc(OC[C@@]56CCCN5C[C@H](F)C6)nc4N4CCNc5cc(Br)ccc5C4)C3)c12` [Example 348, 4-(4-(8-bromo-1,2,3,5-tetrahydro-4H-benzo[e][1,4]diazepin-4-yl)-2-(((2R,7aS)-2-fluorotetrahydro-1H-pyrrolizin-7a(5H)-yl)methoxy)-5,8-dihydropyrido[3,4-d]pyrimidin-7(6H)-yl)-5-ethyl-6-fluoronaphthalen-2-ol], the IC50 in the assay on ASPC1 cells was > 10000 nM; with H727 cells it was > 10000 nM; at KRas G12D, 83300 nM; at KRas G12R, 43000 nM; on KRas G12V it was 38500 nM.
For `CCc1c(F)ccc2cc(O)cc(N3CCc4c(nc(OC[C@@]56CCCN5C[C@H](F)C6)nc4NCC4NC(=O)NC4=O)C3)c12` (stereo partly drawn) [Example 377, 5-(((7-(8-ethyl-7-fluoro-3-hydroxynaphthalen-1-yl)-2-(((2R,7aS)-2-fluorohexahydro-1H-pyrrolizin-7a-yl)methoxy)-5,6,7,8-tetrahydropyrido[3,4-d]pyrimidin-4-yl)amino)methyl)imidazolidine-2,4-dione], the IC50 with ASPC1 cells was 2340 nM; with H727 cells, 677 nM; at KRas G12D, 4 nM; on KRas G12R, 4 nM; on KRas G12V, < 2 nM.
With `CCc1c(F)ccc2cc(O)cc(N3CCc4c(nc(OC[C@@]56CCCN5C[C@H](F)C6)nc4NCc4cc(C(=O)N(C)C)nn4C)C3)c12` [Example 399, 5-(((7-(8-ethyl-7-fluoro-3-hydroxynaphthalen-1-yl)-2-(((2R,7aS)-2-fluorohexahydro-1H-pyrrolizin-7a-yl)methoxy)-5,6,7,8-tetrahydropyrido[3,4-d]pyrimidin-4-yl)amino)methyl)-N,N,1-trimethyl-1H-pyrazole-3-carboxamide], the IC50 in the assay with ASPC1 cells was found to be 513 nM; in the assay on H727 cells, 896 nM; at KRas G12D, 3 nM; at KRas G12R it was 8 nM; at KRas G12V, 4 nM.
The matching figures for `CCc1c(F)ccc2cc(O)cc(N3CCc4c(nc(OC[C@@]56CCCN5C[C@H](F)C6)nc4N4CCCC5(CCNC5=O)C4)C3)c12` (stereo partly drawn) [Example 401, 7-(7-(8-ethyl-7-fluoro-3-hydroxynaphthalen-1-yl)-2-(((2R,7aS)-2-fluorohexahydro-1H-pyrrolizin-7a-yl)methoxy)-5,6,7,8-tetrahydropyrido[3,4-d]pyrimidin-4-yl)-2,7-diazaspiro[4.5]decan-1-one]: 1730 nM, 1410 nM, 59 nM, 10 nM and 22 nM.
The like results for `CCc1c(F)ccc2cc(O)cc(N3CCc4c(nc(OC[C@@]56CCCN5C[C@H](F)C6)nc4N4CCCc5occc5C4)C3)c12` [Example 423, 4-(4-(7,8-dihydro-4H-furo[3,2-c]azepin-5(6H)-yl)-2-(((2R,7aS)-2-fluorohexahydro-1H-pyrrolizin-7a-yl)methoxy)-5,6-dihydropyrido[3,4-d]pyrimidin-7(8H)-yl)-5-ethyl-6-fluoronaphthalen-2-ol] were, in that order, 4950 nM, 1970 nM, 396 nM, 26 nM and 42 nM.
Take `O=C1NCC2(CCCN(c3nc(OC[C@@]45CCCN4C[C@H](F)C5)nc4c3CCN(c3c5ccccc5cc5[nH]ncc35)C4)C2)N1` (stereo partly drawn) [Example 473, 7-(7-(1H-benzo[f]indazol-4-yl)-2-(((2R,7aS)-2-fluorohexahydro-1H-pyrrolizin-7a-yl)methoxy)-5,6,7,8-tetrahydropyrido[3,4-d]pyrimidin-4-yl)-1,3,7-triazaspiro[4.5]decan-2-one]: the IC50 in the assay on ASPC1 cells came to 5120 nM; in the assay with H727 cells, 4100 nM. The inhibition at 0.1 µM in the assay on A549 cells and in the assay with H358 cells was 12% in each case.
`O=C1NCC12CCCN(c1nc(OC[C@@]34CCCN3C[C@H](F)C4)nc3c1CCN(c1cc(O)cc4ccc(F)c(Br)c14)C3)C2` (stereo partly drawn) [Example 482, 6-(7-(8-bromo-7-fluoro-3-hydroxynaphthalen-1-yl)-2-(((2R,7aS)-2-fluorohexahydro-1H-pyrrolizin-7a-yl)methoxy)-5,6,7,8-tetrahydropyrido[3,4-d]pyrimidin-4-yl)-2,6-diazaspiro[3.5]nonan-1-one]: the IC50 with ASPC1 cells is 1460 nM; with H727 cells it was 1200 nM; on KRas G12D it was 3 nM; on KRas G12R, 5 nM; on KRas G12V, < 2 nM.
With `CCc1c(F)ccc2cc(O)cc(N3CCc4c(nc(N5CC(N)C5)nc4N4CCC[C@@](C)(O)C4)C3)c12` [Example 486, (R)-1-(2-(3-aminoazetidin-1-yl)-7-(8-ethyl-7-fluoro-3-hydroxynaphthalen-1-yl)-5,6,7,8-tetrahydropyrido[3,4-d]pyrimidin-4-yl)-3-methylpiperidin-3-ol], the results for the IC50 on KRas G12D, at KRas G12R and at KRas G12V were 755 nM, 1160 nM and 886 nM, respectively.
The like results for `CCc1c(F)ccc2cc(O)cc(N3CCc4c(nc(OC[C@@]56CCCN5C[C@H](F)C6)nc4N4CCCC5(CCCC5)C4)C3)c12` [Example 489, 5-ethyl-6-fluoro-4-(2-(((2R,7aS)-2-fluorohexahydro-1H-pyrrolizin-7a-yl)methoxy)-4-(7-azaspiro[4.5]decan-7-yl)-5,6-dihydropyrido[3,4-d]pyrimidin-7(8H)-yl)naphthalen-2-ol] were, in that order, 761 nM, 553 nM and 702 nM.
The matching figures for `CCc1c(F)ccc2cc(O)cc(N3CCc4c(nc(OC[C@@]56CCCN5C[C@H](F)C6)nc4N4CCCC5(C4)NC(=O)N(C)C5=O)C3)c12` (stereo partly drawn) [Example 644, 7-(7-(8-ethyl-7-fluoro-3-hydroxynaphthalen-1-yl)-2-(((2R,7aS)-2-fluorotetrahydro-1H-pyrrolizin-7a(5H)-yl)methoxy)-5,6,7,8-tetrahydropyrido[3,4-d]pyrimidin-4-yl)-3-methyl-1,3,7-triazaspiro[4.5]decane-2,4-dione]: 16 nM, 13 nM and 14 nM.
For the compound `CCc1cccc2cccc(N3CCc4c(nc(OCC5(CN(C)C)CC5)nc4N4CCCC(c5nccn5C)C4)C3)c12` (centres unmarked) [Example 692, 1-(1-(((7-(8-ethylnaphthalen-1-yl)-4-(3-(1-methyl-1H-imidazol-2-yl)piperidin-1-yl)-5,6,7,8-tetrahydropyrido[3,4-d]pyrimidin-2-yl)oxy)methyl)cyclopropyl)-N,N-dimethylmethanamine], the half-maximal inhibitory concentration (IC50) at KRas G12D was determined as 16100 nM; on KRas G12V, 8850 nM.
